US9555052B2, “Intrauterine fetal growth restriction—the biochemical rationale of treatment modalities including extraperitoneal transamniotic fetal supplements” (priority 2003, dated 2017)
Like-named read-outs stand apart in the source and are kept apart here.

What was measured:
[1] = tested on: severely growth restricted fetus (fetal IUGR); test: Clinical case study: severe fetal IUGR treated with maternal IV hypertonic D-glucose bolus; format: in vivo, human
From the text: At the outset, it is relevant to describe a clinical case study of successfully treating a severe case of fetal IUGR, during the years 1983-84, by the Author Inventor as a practicing ob/gyn. in India, as it is the basis for this writing of significant depth that aided the author inventor decades later to fully comprehend what was once successfully treated, but was only incompletely understood at that time.
They were well nourished and was from good socioeconomic background, and there were no obvious etiological factors, that could be accounted for the identified fetal IUGR. After monitoring the growth of the fetus by assessing fundal height (a clinical norm of fetal measure in the past) for 3-4 more weeks, it was confirmed that the uterine size was not progressing, and that the patient had severely growth restricted fetus. […] The patient had more frequent pre-natal follow ups, and the treatment was diligently continued with increments, as also the patient was admirably cooperative. Nearing term, they were delivered by elective cesarean section.
The observed fetal growth restriction was undoubtedly severe, but with mere hypertonic intravenous D-glucose treatment and no other (except for standard doses of prenatal vitamins and minerals), the […] delivered an AGA baby, who obviously had caught up with standard growth curve, as though glucose supplement alone, and nothing else was needed.

[2] = tested on: Human Umbilical Vessel Endothelial cells (HUVEC); settings: cited from earlier work
[3] = tested on: rabbit fetus; settings: cited from earlier work
[4] = 25 G IV bolus over 3-5 minutes, cited from earlier work
[5] = tested on: all tissues types; settings: cited from earlier work

Question: With `O=C[C@H](O)[C@@H](O)[C@H](O)[C@H](O)CO` [D-glucose] as the molecule, how does the fetal growth response ([1]; 20% IV bolus 50 cc twice daily to the parent, observed in 2-3 weeks) read?
Answer: undoubted and immediate catch up of fetal growth

Question: And the “birth weight for gestational age” value ([1]; at delivery nearing term)?
Answer: appropriate for the gestational age (AGA)

Question: And the “Apgar score of the baby” value ([1]; elective cesarean nearing term after continued treatment with increments)?
Answer: 10

Question: And the “adverse effects in the mother due to induced maternal hyperglycemia” value ([1]; throughout gestation)?
Answer: No adverse effects

Question: And the CGMP accumulation [2]?
Answer: increased

Question: And the L-Arginine transport [2]?
Answer: increased

Question: What about the “reversal of growth restriction” value ([3]; Flake et al, natural runt rabbit fetus, solutions alone or in combination) of the same molecule?
Answer: did not reverse growth restriction

Question: And the fetal weight ([3]; Mulvihill et al 1985, pregnant rabbit models, transamniotic)?
Answer: increase in fetal weight

Question: What about the “blood glucose level (peak)” value ([4]; at 15 minutes) of the same molecule?
Answer: 175 mg %

Question: What about the blood glucose level ([4]; at 30 minutes) of the same molecule?
Answer: 125 mg %

Question: And the blood glucose level ([4]; at 1 hour)?
Answer: 75 mg %

Question: And the blood glucose level ([4]; during the second hour)?
Answer: 70 mg %

Question: Which neovascular growth ([5]; all tissues types) does the source give for `NCCCC[C@@H](N)C(=O)O` [D-lysine] here?
Answer: induce neovascular growth

Question: For `NCCCC[C@H](N)C(=O)O` [monomeric lysine, lysine], which “biomass (cell population) expansion” value ([5]; compared to other physicochemical means) is on record?
Answer: expand biomass (cell population) at the least possible time

Question: Which CGMP accumulation [2] does the source give for insulin here?
Answer: increased

Question: And the L-Arginine transport [2]?
Answer: increased
